# Measurements from US20110065715A1, “Nogo Receptor Binding Small Molecules to Promote Axonal Growth” (Yale University, priority 2007, published 2011).
# “Also recorded” adds a separate entry of the source. Read-outs that look alike come from different tables or passages of the source.
# Assays:
# [1] = system: embryonic day 13 or 14 chick DRG neurons; test: Neurite outgrowth assay, E13/E14 chick DRG neurons; assay type: cell-based, chicken; details: 20 μM; for neurite outgrowth compared to the DMSO control: E13 or E14 chick DRG, two to four hours
# Procedure: (§1) To test the ability of the “hit” compounds to promote neurite outgrowth, a neurite outgrowth assay was performed using each of these compounds. Dorsal root ganglia (DRG) were removed from chicken embryos at embryonic day 13 or 14, dissociated by trituration after 30 min incubation in 0.5% collagenase, and plated on laminin-coated 96-well tissue culture plates in DMEM with 10% fetal bovine serum containing 20 μM of the test compound. After two to four hours of incubation, the cells were fixed in 4% formaldehyde in phosphate buffered saline (PBS), washed in PBS, and blocked for 1 hour in PBS with 0.1% triton X-100 and 10% goat serum. The cells were incubated in rabbit anti-beta-3-tubulin (1:500) in PBS overnight and then washed 3 times with PBS. The cells were then incubated in Alexa-fluor 488 goat anti-rabbit IgG (1:500) for 6 hrs, washed with PBS, and imaged at 10× with an ImagExpress automated microscope (Molecular Devices, Inc.). Neurite outgrowth was measured with AcuityExpress software (Molecular Devices, Inc.).
# [2] = system: embryonic day 13 (E13) chick DRG neurons; test: Competition neurite outgrowth assay with soluble FcNgR; assay type: cell-based, chicken; details: for outgrowth promoting effect when coadministered with FcNgR: with 7.5 μM FcNgR, 3.5 hours
# Procedure: as §1
# To further verify the mechanism of how the compounds are promoting neurite outgrowth, a competition assay was performed. […] (FIG. 12B). compounds KM, HTS or 555 were then coadministered with 7.5 μM of FcNgR. […] (FIGS. 14A-B and 17B).
# [3] = system: embryonic day 8 (E8) chick DRG neurons; test: Neurite outgrowth assay, E8 chick DRG neurons (no Nogo receptor expressed); assay type: cell-based, chicken; details: Nogo receptor not yet expressed
# Procedure: as §1
# In another experiment to verify the mechanism of action, a neurite outgrowth assay was performed as described above except the Dorsal root ganglia (DRG) were removed from chicken embryos at embryonic day 8 instead of day 13. At day 8, Nogo receptor is not yet expressed in the DRG. The compounds KM, HTS, 555, 5470, 585 were administered as described above and neurite outgrowth was measured. […] (FIG. 21)
# [4] = system: Nogo receptor:Nogo ligand (Nogo 66) interaction; test: DELFIA assay of Fc-NgR:Ng66 interaction; assay type: binding
# Procedure: ELISA and DELFIA assays were then performed to evaluate the ability of the small molecules that were identified as “hits” in the AlphaScreens to inhibit the interaction of NgR and Nogo ligand. In the DELFIA Assay, 96 well streptavidin coated plates were blocked overnight with PBS and 10 mg/ml bovine serum albumin (BSA) (200 μl). The wells were then coated for 1.5 hours with sonicated HBH (Hanks Balanced Salt Solution/0.1 M HEPES/1 mg/ml BSA) containing Nogo 66 (B66) (0.5 μl of 10 mM/10 ml HBH) (50 μl) and then washed 4 times with 200 μl of HBH. The solution containing the inhibitor compound (50 μl in HBH) was added along with 1% FcNgR solution in HBH (50 μl), and the solution was incubated for 2 hours. The wells were washed 5 times with HBH. Alkaline phosphatase (AP) conjugated mouse anti-rat antibody (1:2500) was added and the wells were then washed 5 times with DELFIA wash buffer. The Europium (Eu) anti-mouse antibody was then added in Perlin Elmer Assay, buffer (100 μg/ml) (150 μl) and the wells were again washed 5 times with DELFIA wash buffer. The enhancer solution was added (100 μl) and the plate was read with the Perkin Elmer Victor 5 instrument 15 minutes later. (FIG. 10B) The results from the DELFIA assay indicate that compounds HTS08871, KM08071, and 503749, as well as the positive control, NEP33, inhibit the Nogo receptor:Nogo ligand (Nogo 66) interaction. (FIGS. 10D and 11A-C).
# [5] = system: Nogo receptor:Nogo ligand (Nogo 66) interaction; test: ELISA assay of NgR:Nogo ligand interaction; assay type: binding
# Procedure: In the ELISA assay, 96 well streptavidin coated plates were blocked overnight with PBS and 10 mg/ml bovine serum albumin (BSA) (200 μl). The wells were then coated for 1.5 hours with sonicated HBH (Hanks Balanced Salt Solution/0.1 M HEPES/1 mg/ml BSA) containing Nogo 66 (B66) (0.5 μl of 10 mM/10 ml HBH) (50 μl) and then washed 4 times with 200 μl of HBH. The solution containing the inhibitor compound (50 μl in HBH) was added along with 1% FcNgR solution in HBH (50 μl), and the solution was incubated for 2 hours. The wells were washed 5 times with HBH. Alkaline phosphatase (AP) conjugated mouse anti-rat antibody (1:2500) was added and the wells were then washed 5 times with HBH. Colorimetric alkaline phosphatase substrate was added for 30 minutes and the plate was read with the Perkin Elmer Victor 5 instrument. (FIG. 10A). […] (FIG. 10C).
# Fc-NgR:Ng66 interaction = test: AlphaScreen of Fc-NgR:Ng66 interaction; assay type: binding
# From the text: An AlphaScreen assay was used to screen for small molecule inhibitors of the Nogo receptor-Nogo ligand interaction. The AlphaScreen assay involves matching Alpha Donor (Streptavidin) and Acceptor beads (Protein A). (FIG. 1) These beads are coated with a layer of hydrogel to provide functional groups for bioconjugation. […] However, if a biological reaction brings the Alpha Donor and Acceptor beads into close proximity, upon laser excitation, a cascade of chemical reactions produces a greatly amplified signal. (FIG. 3) Upon laser excitation, a photosensitizer inside the Donor bead converts ambient oxygen to a more excited singlet state. The singlet state oxygen molecules diffuse to produce a chemiluminescent reaction in the Acceptor bead, leading to light emission. In the absence of a specific biological interaction, the singlet state oxygen molecules produced by the Donor bead go undetected without the close proximity of the Acceptor bead.
# Beads conjugated to streptavidin were used to bind biotinylated Nogo 66 (Ng66) (the 66 amino acid inhibitory domain in the carboxyl region of Nogo ligand), and beads conjugated to Protein A were used to bind an Fc-Nogo receptor (NgR) fusion protein. (FIG. 2) By virtue of the interaction of Ng66 and Fc-NgR, the acceptor beads and donor beads were brought into proximity, yielding a signal upon excitation. […] (FIGS. 4 and 6). […]
# Fc-NgR:Ng66 interaction, sequence (Q99M75 27-310 limits assumed): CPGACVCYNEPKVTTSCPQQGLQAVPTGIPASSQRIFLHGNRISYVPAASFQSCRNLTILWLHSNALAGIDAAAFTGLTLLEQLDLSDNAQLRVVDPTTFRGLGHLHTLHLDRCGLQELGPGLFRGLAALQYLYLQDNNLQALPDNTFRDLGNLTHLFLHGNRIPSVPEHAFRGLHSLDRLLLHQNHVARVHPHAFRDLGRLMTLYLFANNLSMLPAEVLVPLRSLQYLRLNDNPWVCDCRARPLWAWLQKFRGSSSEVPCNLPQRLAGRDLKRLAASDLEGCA
Molecule,neurite outgrowth compared to the DMSO control [1],effect on neurite outgrowth of day 8 DRGs [3],also measured
"CN1C(=O)C(O)(CC(=O)c2ccc(Cl)cc2)c2ccccc21 (centres unmarked) [compound 592, 3-[2-(4-chlorophenyl)-2-oxoethyl]-3-hydroxy-1-methyl-1,3-dihydro-2H-indol-2-one]",inhibited neurite outgrowth,,
"COc1ccc2c(c1)NC(c1ccc(N(C)C)cc1)c1cccn1-2 (centres unmarked) [HTS, 4′-(7-methoxy-4,5-dihydropyrrolo[1,2-a]quinoxalin-4-yl)-N,N-dimethylaniline]",promoted neurite outgrowth,no effect,"neurite outgrowth in the absence of exogenous FcNgR [2]: promoted neurite outgrowth; outgrowth promoting effect when coadministered with FcNgR [2]: inhibited; also recorded: blocking; inhibition of Nogo receptor:Nogo 66 interaction signal, DELFIA [4]: dose dependent signal inhibition; inhibition of Nogo receptor:Nogo 66 interaction signal, DELFIA ([4]; listed as HTS08871): inhibit"
Cc1nccc(-c2cccc(N/N=C(\C#N)C(=O)c3ccc(Cl)cc3)c2)n1 [KMO2502],inhibited neurite outgrowth,,
"N#C/C(=C\c1ccc(C#Cc2ccccc2)cc1)C(=O)c1ccc(Cl)cc1 [KM, 2-(4-chlorobenzoyl)-3-[4-(2-phenyleth-1-ynyl)phenyl]acrylonitrile]",promoted neurite outgrowth,no effect,"neurite outgrowth in the absence of exogenous FcNgR [2]: promoted neurite outgrowth; outgrowth promoting effect when coadministered with FcNgR [2]: inhibited; also recorded: blocking; basal neurite outgrowth, E13 chick DRG neurons [1]: neurite outgrowth promoting effect; inhibition of Nogo receptor:Nogo 66 interaction signal, DELFIA [4]: dose dependent signal inhibition; inhibition of Nogo receptor:Nogo 66 interaction signal, DELFIA ([4]; listed as KM08071): inhibit"
"N#Cc1ccc(Cn2c(=O)sc3ccccc32)cc1 [compound 535, 4-[(2-oxo-1,3-benzothiazol-3(2H)-yl)methyl]benzonitrile]",promoted neurite outgrowth,,
N.N.[Cl][Pt][Cl] [Cisplatin],,,"inhibition of Nogo receptor:Nogo 66 interaction, ELISA [5]: inhibit"
"CCN1C(=O)C(O)(CC(=O)c2ccc(Cl)cc2)c2ccccc21 (centres unmarked) [compound 664, 3-[2-(4-chlorophenyl)-2-oxoethyl]-1-ethyl-3-hydroxy-1,3-dihydro-2H-indol-2-one]",inhibited neurite outgrowth,,
Acetyl-RIYKSVLQAVQKTDEGHPFKAYLELEITLSQEQ-Amide (Ac-RIYKSVLQAVQKTDEGHPFKAYLELEITLSQEQ-NH2) [NEP33],,,"interference with Ng66:Fc-NgR interaction (AlphaScreen signal) (Fc-NgR:Ng66 interaction): reducing signal; inhibition of interaction of Ng66 and Fc-NgR (AlphaScreen signal) (Fc-NgR:Ng66 interaction; 20 hours incubation, concentration between 1.25 μM and 20 μM, beads 5 μg/ml): inhibited; inhibition of Nogo receptor:Nogo 66 interaction signal, DELFIA [4]: inhibit; inhibition of Nogo receptor:Nogo 66 interaction, ELISA [5]: inhibit"
"CCc1cccc2c(C(C)=O)cn(Cc3ccc(C#N)cc3)c12 [compound 794, 4-[(3-acetyl-7-ethyl-1H-indol-1-yl)methyl]benzonitrile]",promoted neurite outgrowth,,
"Cc1oc2ccc(O)cc2c1C(=O)c1ccc(Cl)cc1 [compound 585, (4-chlorophenyl)(5-hydroxy-2-methyl-1-benzofuran-3-yl)methanone]",promoted neurite outgrowth,no effect,"basal neurite outgrowth, E14 chick DRG neurons [1]: neurite outgrowth promoting effect"
"CN(C)c1ccc(C2C=Cc3ccccc3N2C(=O)c2ccccc2)cc1 (centres unmarked) [compound 536, 4-(1-benzoyl-1,2-dihydro-2-quinolinyl)-N,N-dimethylaniline]",promoted neurite outgrowth,,
"O=C(c1ccc(Cl)cc1)c1coc2ccc(O)cc12 [compound 5470, (4-chlorophenyl)(5-hydroxy-1-benzofuran-3-yl)methanone]",promoted neurite outgrowth,no effect,"basal neurite outgrowth, E14 chick DRG neurons [1]: neurite outgrowth promoting effect"
"CCOC(=O)C1=C(C)N=C2SCC(=O)N2C1c1ccc(N(C)C)cc1 (centres unmarked) [compound 555, ethyl 5-[4-(dimethylamino)phenyl]-7-methyl-3-oxo-2,3-dihydro-5H-[1,3]thiazolo[3,2-a]pyrimidine-6-carboxylate]",promoted neurite outgrowth,no effect,"neurite outgrowth in the absence of exogenous FcNgR [2]: promoted neurite outgrowth; outgrowth promoting effect when coadministered with FcNgR [2]: inhibited; also recorded: blocking; basal neurite outgrowth, E13 chick DRG neurons [1]: neurite outgrowth promoting effect"
"O=C(CC1(O)C(=O)Nc2ccc(Br)cc21)c1ccc(Cl)cc1 (centres unmarked) [compound 5475, 5-bromo-3-[2-(4-chlorophenyl)-2-oxoethyl]-3-hydroxy-1,3-dihydro-2H-indol-2-one]",inhibited neurite outgrowth,,
"CN(C)c1ccc(Cc2ccc(N(C)C)cc2)cc1 [BTB11222, N1,N1-dimethyl-4-[4-(dimethylamino)benzyl]aniline]",promoted neurite outgrowth,,
"Cc1ccc2occ(C(=O)c3ccc(Cl)cc3)c(=O)c2c1 [compound 5472, 3-(4-chlorobenzoyl)-6-methyl-4H-chromen-4-one]",promoted neurite outgrowth,,
